Results reported in PubChem BioAssay (NCI).
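Protocol summary: plate cells (96-well), add compound at 5 concentrations, incubate 48 h, interpolate endpoints linearly. GI50 = concentration required for 50% inhibition of growth. The concentration for full growth arrest is given as TGI.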

How the values were obtained:
Assay in all cases: NCI anticancer screen, dose series, 48 h
MOLT-4 leukemia = system: MOLT-4 leukemia
NCI-H460 lung = system: NCI-H460 lung
TK-10 renal = system: TK-10 renal
SNB-75 CNS = system: SNB-75 CNS
MALME-3M melanoma = system: MALME-3M melanoma
HOP-62 NSCLC = system: HOP-62 NSCLC
SR leukemia = system: SR leukemia
ACHN renal = system: ACHN renal
OVCAR-3 ovarian = system: OVCAR-3 ovarian
SF-539 CNS = system: SF-539 CNS

| Structure (SMILES) | TGI (MOLT-4 leukemia) [µM] | TGI (NCI-H460 lung) [µM] | TGI (TK-10 renal) [µM] | TGI (SNB-75 CNS) [µM] | TGI (MALME-3M melanoma) [µM] | TGI (HOP-62 NSCLC) [µM] | TGI (SR leukemia) [µM] | TGI (ACHN renal) [µM] | TGI (OVCAR-3 ovarian) [µM] | TGI (SF-539 CNS) [µM] | GI50 (MOLT-4 leukemia) [µM] | GI50 (NCI-H460 lung) [µM] | GI50 (TK-10 renal) [µM] | GI50 (SNB-75 CNS) [µM] | GI50 (MALME-3M melanoma) [µM] | GI50 (HOP-62 NSCLC) [µM] | GI50 (SR leukemia) [µM] | GI50 (ACHN renal) [µM] | GI50 (OVCAR-3 ovarian) [µM] | GI50 (SF-539 CNS) [µM] |
| --- | --- | --- | --- | --- | --- | --- | --- | --- | --- | --- | --- | --- | --- | --- | --- | --- | --- | --- | --- | --- |
| COc1cc(C(=O)O)c([N+](=O)[O-])c(OC)c1OC | > 100 | > 100 | > 100 | > 100 | > 100 | > 100 | > 100 | > 100 | > 100 | > 100 | – | – | – | – | – | – | – | – | – | – |
| Nc1nc(N)[n+]([O-])c(N)c1NCO | > 100 | > 100 | > 100 | > 100 | > 100 | > 100 | > 100 | > 100 | > 100 | > 100 | – | – | – | – | – | – | – | – | – | – |
| Cn1nc(-c2ccccc2NC(=O)C(F)(F)F)c(=O)n(C)c1=S | > 100 | 64.1 | > 100 | 59.4 | > 100 | > 100 | 53.7 | 77.5 | 40.6 | 83.9 | – | – | – | – | – | – | – | – | – | – |
| Cn1cc(-c2ccc(=O)n(Cc3cccc(-c4ncc(OCCN5CCOCC5)cn4)c3)n2)cn1 | > 100 | > 100 | > 100 | > 100 | > 100 | > 100 | > 100 | > 100 | > 100 | > 100 | 36.4 | > 100 | 99 | > 42.5 | > 54.9 | > 62.7 | 76.4 | > 83.6 | 58 | > 100 |
| C/C(=N\NC(=S)Nc1ccc(C(=O)O)cc1)c1ccccn1 | > 100 | 50.2 | > 100 | 40 | 35.1 | > 100 | 56.3 | 30.4 | 47.8 | 40.3 | – | – | – | – | – | – | – | – | – | – |
| COC(=O)c1cnc(=O)n(C2CC(O)C(CO)O2)c1 (configuration not stated) | > 100 | > 100 | > 100 | > 100 | > 100 | > 100 | > 100 | > 100 | > 100 | > 100 | > 100 | > 100 | > 100 | > 100 | > 100 | > 100 | > 100 | > 100 | > 100 | > 100 |
| COc1cc(-c2cc(C(=O)N3CCN(C(=O)c4ccccc4NCc4ccco4)CC3)nc3cc(-c4ccccc4)nn23)cc(OC)c1OC | > 100 | > 100 | > 100 | 19.3 | > 100 | > 100 | > 100 | > 100 | 6.27 | > 26 | 11.2 | 2.55 | 6.74 | 2.07 | 7.58 | 3.03 | 0.523 | 6.97 | 1.47 | 3.11 |
| Cc1cc2c(C)c3cc(C)c(N)cc3nc2cc1N | 6.23 | 1.34 | 5.39 | 4.94 | 6.31 | 7.08 | 4.2 | 3.82 | 5.35 | 3.48 | 0.43 | 0.332 | 1.31 | 1.14 | 1.72 | 1.11 | 0.507 | 0.422 | 1.18 | 0.455 |
| CCOC(=O)C1C=C2O[C@@H]3OC4(CCCCC4)O[C@@H]3C2[C@H]2C(=O)C=CC(=O)[C@@]12C(=O)OC (some centres not stated) | 8.71 | 33.4 | 26.5 | 35.4 | 31.2 | 36.3 | 6.71 | 32.2 | 22.1 | 6.16 | – | – | – | – | – | – | – | – | – | – |
| CCCCCCCCCCCCc1ccc(C(=O)/C=C/C(=O)O)cc1 | 5.11 | 27.1 | 3.64 | 10.4 | 3.6 | 29.9 | 3.07 | 3.15 | 3.47 | 3.33 | 0.99 | 10.8 | 1.82 | 1.66 | 1.82 | 14 | 0.423 | 1.73 | 1.91 | 1.73 |
| O=[N+]([O-])c1ccc(Sc2ncccn2)c([N+](=O)[O-])c1 | 25.4 | 24.1 | 5.77 | 17.6 | 4.72 | 30.1 | 17.9 | 11.1 | 10.3 | 8.82 | 2.32 | 6.78 | 2.57 | 4.51 | 1.75 | 15.1 | 1.2 | 3.41 | 3.38 | 2.63 |
| NC(N)=NC(CC(=O)O)c1ccccc1 (configuration not stated) | – | > 100 | > 100 | > 100 | > 100 | > 100 | > 100 | > 100 | > 100 | > 100 | – | – | – | – | – | – | – | – | – | – |
| Nc1cccc2c1C(=O)N(C1CCC(=O)NC1=O)C2=O (configuration not stated) | > 100 | > 100 | > 100 | > 100 | > 100 | > 100 | > 100 | > 100 | > 100 | > 100 | > 100 | > 100 | > 100 | > 100 | > 100 | > 100 | > 100 | > 100 | > 100 | > 100 |
| C[C@H]1[C@H](OC(=O)CCC(=O)O)O[C@@H]2O[C@]3(C)CC[C@H]4[C@H](C)CC[C@@H]1[C@@]24OO3 | 16.5 | 41.6 | 11.6 | 17.6 | 31.6 | 27.3 | 4.27 | 14.4 | 15.2 | 14.5 | 0.308 | 1.24 | – | 2.34 | 0.878 | 3.68 | 0.238 | 0.921 | 0.415 | 0.667 |
| COc1ccccc1C(=O)/C=C/c1cc2cccc(OC)c2[nH]c1=O | 5.2 | 0.524 | 11.5 | 3.6 | 4.6 | 4.9 | > 51.3 | 2.15 | 0.6 | 0.0848 | 0.0408 | 0.0243 | 1.14 | 0.0191 | 0.0511 | 0.0668 | – | 0.0557 | 0.0343 | 0.0211 |
